From PubChem BioAssay AID328 (DTP/NCI, 2004)
“And” between values parts separate entries of the source, which are not always exact repeats. Equal values may be shown once. Inconclusive results and toxic doses are left out. Rule for the calls: active = survival T/C of 150% or more; inactive = T/C below 125% in these data.

System: BDF1 mice, P388 leukemia ip, median survival T/C
Assay: NCI In Vivo Anticancer Drug Screen. Data for tumor model P388 Leukemia (intraperitoneal) in B6D2F1 (BDF1) mice
Conditions: endpoint: median survival time, higher = longer survival
Summary of the method: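 Vehicle-dosed animals serve as the reference; survival of compound-dosed, tumour-implanted mice is divided by it.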

[1] = dose: 25.0 mg/kg/injection, schedule: Q01DX009 (ip), vehicle: saline with Tween-80
[2] = dose: 12.5 mg/kg/injection, schedule: Q01DX009 (ip), vehicle: saline
[3] = dose: 50.0 mg/kg/injection, schedule: Q01DX009 (ip), vehicle: saline
[4] = dose: 100.0 mg/kg/injection, schedule: Q01DX009 (ip), vehicle: saline
[5] = dose: 100.0 mg/kg/injection, schedule: Q04DX003 (ip), vehicle: saline
[6] = dose: 200.0 mg/kg/injection, schedule: Q04DX003 (ip), vehicle: saline
[7] = dose: 12.5 mg/kg/injection, schedule: Q01DX009 (ip), vehicle: Klucel (hydroxypropylcellulose) (HPC)
[8] = dose: 25.0 mg/kg/injection, schedule: Q01DX009 (ip), vehicle: Klucel (hydroxypropylcellulose) (HPC)
[9] = dose: 37.5 mg/kg/injection, schedule: Q01DX009 (ip), vehicle: saline
[10] = dose: 6.25 mg/kg/injection, schedule: Q04DX003 (ip), vehicle: saline with Tween-80
[11] = dose: 12.5 mg/kg/injection, schedule: Q04DX003 (ip), vehicle: saline with Tween-80
[12] = dose: 25.0 mg/kg/injection, schedule: Q04DX003 (ip), vehicle: saline with Tween-80

Measured: T/C

C1CCC2(CC1)OCCO2
inactive: [1] 87 % of control | dose: 50.0 mg/kg/injection, schedule: Q01DX009 (ip), vehicle: saline with Tween-80 97 % of control | dose: 100.0 mg/kg/injection, schedule: Q01DX009 (ip), vehicle: saline with Tween-80 100 % of control | dose: 200.0 mg/kg/injection, schedule: Q01DX009 (ip), vehicle: saline with Tween-80 106 % of control

OC1OC(COC(c2ccccc2)(c2ccccc2)c2ccccc2)C(O)C(O)C1O (centres undefined)
inactive: dose: 10.0 mg/kg/injection, schedule: Q01DX009 (ip), vehicle: saline 123 % of control | [2] 88 % of control | dose: 20.0 mg/kg/injection, schedule: Q01DX009 (ip), vehicle: saline 108 % of control | dose: 25.0 mg/kg/injection, schedule: Q01DX009 (ip), vehicle: saline 104 % of control and 115 % of control | dose: 40.0 mg/kg/injection, schedule: Q01DX009 (ip), vehicle: saline 114 % of control | [3] 101 % of control and 123 % of control | dose: 80.0 mg/kg/injection, schedule: Q01DX009 (ip), vehicle: saline 107 % of control | [4] 90 % of control and 104 % of control and 105 % of control | dose: 100.0 mg/kg/injection, schedule: Q01DX009 (ip), vehicle: water 100 % of control | dose: 100.0 mg/kg/injection, schedule: Q04DX003 (ip), vehicle: saline with Tween-80 110 % of control | [5] 90 % of control | dose: 100.0 mg/kg/injection, schedule: Q04DX003 (ip), vehicle: water 105 % of control | dose: 200.0 mg/kg/injection, schedule: Q01DX009 (ip), vehicle: water 105 % of control | dose: 200.0 mg/kg/injection, schedule: Q04DX003 (ip), vehicle: saline with Tween-80 105 % of control | [6] 95 % of control | dose: 200.0 mg/kg/injection, schedule: Q04DX003 (ip), vehicle: water 110 % of control | dose: 400.0 mg/kg/injection, schedule: Q01DX009 (ip), vehicle: water 105 % of control | dose: 400.0 mg/kg/injection, schedule: Q04DX003 (ip), vehicle: saline with Tween-80 110 % of control | dose: 400.0 mg/kg/injection, schedule: Q04DX003 (ip), vehicle: water 110 % of control

CSc1cccc(NC(=O)OCCOc2ccc(-c3ccccc3)cc2)c1
inactive: [7] 109 % of control | [8] 105 % of control | dose: 50.0 mg/kg/injection, schedule: Q01DX009 (ip), vehicle: Klucel (hydroxypropylcellulose) (HPC) 111 % of control

CC1NC(=O)C2Cc3ccc(O)c(c3)Oc3cccc(c3)C(O)C(C(=O)N2C)N(C)C(=O)C(C)NC(=O)C(Cc2ccc(O)c(O)c2)N(C)C(=O)C(C)NC1=O (centres undefined)
inactive: dose: 0.25 mg/kg/injection, schedule: Q01DX009 (ip), vehicle: distilled water + Tween-80 94 % of control | dose: 0.5 mg/kg/injection, schedule: Q01DX009 (ip), vehicle: distilled water + Tween-80 99 % of control | dose: 1.0 mg/kg/injection, schedule: Q01DX009 (ip), vehicle: distilled water + Tween-80 94 % of control | dose: 2.0 mg/kg/injection, schedule: Q01DX009 (ip), vehicle: distilled water + Tween-80 96 % of control | dose: 4.0 mg/kg/injection, schedule: Q01DX009 (ip), vehicle: distilled water + Tween-80 99 % of control | dose: 8.0 mg/kg/injection, schedule: Q01DX009 (ip), vehicle: distilled water + Tween-80 99 % of control

C/C(CCCCl)=N/N=C(N)N
inactive: dose: 7.03 mg/kg/injection, schedule: Q01DX001 (ip), vehicle: saline 104 % of control | dose: 14.06 mg/kg/injection, schedule: Q01DX001 (ip), vehicle: saline 100 % of control | dose: 18.75 mg/kg/injection, schedule: Q01DX009 (ip), vehicle: saline 115 % of control | dose: 18.75 mg/kg/injection, schedule: Q04DX003 (ip), vehicle: saline 109 % of control | [9] 115 % of control | dose: 37.5 mg/kg/injection, schedule: Q04DX003 (ip), vehicle: saline 100 % of control | dose: 50.0 mg/kg/injection, schedule: Q04DX003 (ip), vehicle: saline 122 % of control | dose: 75.0 mg/kg/injection, schedule: Q01DX009 (ip), vehicle: saline 115 % of control | dose: 75.0 mg/kg/injection, schedule: Q04DX003 (ip), vehicle: saline 100 % of control

CC(=O)CC(C)=O.CC(=O)CC(C)=O.[Co]
inactive: dose: 6.25 mg/kg/injection, schedule: Q01DX009 (ip), vehicle: saline with Tween-80 96 % of control | [10] 88 % of control | dose: 12.5 mg/kg/injection, schedule: Q01DX009 (ip), vehicle: saline with Tween-80 112 % of control | [11] 92 % of control | [1] 120 % of control | [12] 92 % of control

ClCCN(CCCl)CCCN1c2ccccc2Sc2ccccc21
active: dose: 3.12 mg/kg/injection, schedule: Q04DX003 (ip), vehicle: saline with Tween-80 150 % of control | [11] 158 % of control and 169 % of control | [12] 152 % of control

CC1=[N+](C)C(C)(C)CC(C)O1 (centres undefined)
inactive: dose: 4.5 mg/kg/injection, schedule: Q01DX009 (ip), vehicle: saline 100 % of control | dose: 6.25 mg/kg/injection, schedule: Q01DX009 (ip), vehicle: saline 100 % of control | dose: 7.0 mg/kg/injection, schedule: Q01DX009 (ip), vehicle: saline 108 % of control | dose: 11.0 mg/kg/injection, schedule: Q01DX009 (ip), vehicle: saline 100 % of control | [2] 95 % of control | dose: 16.5 mg/kg/injection, schedule: Q01DX009 (ip), vehicle: saline 103 % of control and 104 % of control | [9] 92 % of control and 109 % of control | dose: 200.0 mg/kg/injection, schedule: Q01DX009 (ip), vehicle: saline 90 % of control

O=C(CC(O)(C(F)(F)Cl)C(F)(F)Cl)c1cccs1
inactive: dose: 100.0 mg/kg/injection, schedule: Q01DX001 (ip), vehicle: saline with Tween-80 95 % of control | dose: 200.0 mg/kg/injection, schedule: Q01DX001 (ip), vehicle: saline with Tween-80 100 % of control | dose: 400.0 mg/kg/injection, schedule: Q01DX001 (ip), vehicle: saline with Tween-80 100 % of control

Cc1[nH]c(C)c(C(=O)OC2CCN(C)CC2)c1C
inactive: [10] 103 % of control | [11] 100 % of control | [12] 91 % of control

CC(=O)OC1C=COC(C)C1OC(C)=O (centres undefined)
inactive: [3] 98 % of control | [4] 114 % of control | [5] 100 % of control | [6] 99 % of control | dose: 400.0 mg/kg/injection, schedule: Q04DX003 (ip), vehicle: saline 100 % of control

O=C(c1cc2c3ccccc3ccc2c2ccccc12)C(Br)Br
inactive: [1] 113 % of control

CCC(=O)OCc1ccc(Cl)cc1
inactive: dose: 75.0 mg/kg/injection, schedule: Q04DX003 (ip), vehicle: Klucel (hydroxypropylcellulose) (HPC) 100 % of control | dose: 150.0 mg/kg/injection, schedule: Q04DX003 (ip), vehicle: Klucel (hydroxypropylcellulose) (HPC) 100 % of control | dose: 300.0 mg/kg/injection, schedule: Q04DX003 (ip), vehicle: Klucel (hydroxypropylcellulose) (HPC) 100 % of control

O=C(/C(=C/c1ccccc1)CBr)c1ccccc1
inactive: dose: 1.6 mg/kg/injection, schedule: Q01DX009 (ip), vehicle: Klucel (hydroxypropylcellulose) (HPC) 109 % of control | dose: 3.1 mg/kg/injection, schedule: Q01DX009 (ip), vehicle: Klucel (hydroxypropylcellulose) (HPC) 100 % of control | dose: 6.25 mg/kg/injection, schedule: Q01DX009 (ip), vehicle: Klucel (hydroxypropylcellulose) (HPC) 104 % of control | [7] 86 % of control | dose: 12.5 mg/kg/injection, schedule: Q04DX003 (ip), vehicle: Klucel (hydroxypropylcellulose) (HPC) 104 % of control | [8] 86 % of control | dose: 25.0 mg/kg/injection, schedule: Q04DX003 (ip), vehicle: Klucel (hydroxypropylcellulose) (HPC) 95 % of control | dose: 50.0 mg/kg/injection, schedule: Q04DX003 (ip), vehicle: Klucel (hydroxypropylcellulose) (HPC) 95 % of control

COc1cccc2c1C(=O)c1c(O)c3c(c(O)c1C2=O)C[C@@](O)(/C(CO)=N/NC(=O)c1ccc(Cl)c(Cl)c1)C[C@@H]3OC1CC(N)C(O)C(C)O1 (some centres undefined)
116 % of control and 217 % of control: dose: 3.12 mg/kg/injection, schedule: Q01DX009 (ip), vehicle: water
inactive: dose: 0.78 mg/kg/injection, schedule: Q01DX009 (ip), vehicle: water 94 % of control | dose: 6.25 mg/kg/injection, schedule: Q01DX009 (ip), vehicle: water 121 % of control
